Measurements as given in BindingDB's records for doi:10.1021/jm970446z (National Institute of Diabetes, 1998).

Target: T1, Adenosine receptor A1 (Rattus norvegicus, UniProt P25099)
T1 sequence (P25099 whole entry): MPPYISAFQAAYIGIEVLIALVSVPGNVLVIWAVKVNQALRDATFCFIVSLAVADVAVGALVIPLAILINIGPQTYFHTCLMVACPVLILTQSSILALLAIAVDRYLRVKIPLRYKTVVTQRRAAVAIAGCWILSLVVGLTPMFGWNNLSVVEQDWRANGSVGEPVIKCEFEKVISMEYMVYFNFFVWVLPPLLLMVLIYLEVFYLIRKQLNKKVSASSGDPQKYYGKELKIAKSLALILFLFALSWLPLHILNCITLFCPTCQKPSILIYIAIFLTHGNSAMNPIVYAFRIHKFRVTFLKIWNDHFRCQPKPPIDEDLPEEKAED
Assay: Ability to displace [3H]N6-phenylisopropyladenosine binding from adenosine A1 receptor.

Point of comparison: `COc1ccc2c(c1)C(=O)C(O)C(C#Cc1ccccc1)O2` (stereo unspecified), Ki 50.1 µM. Against it:
- COc1cc(O)c2c(c1)O[C@H](c1ccc(O)cc1)CC2=O [5-hydroxy-2-(4-hydroxyphenyl)-7-methoxychroman-4-one] — 6.2-fold lower, 8.13 µM

Target: T2, Adenosine receptor A3 (Homo sapiens, UniProt P0DMS8)
T2 sequence (P0DMS8 whole entry): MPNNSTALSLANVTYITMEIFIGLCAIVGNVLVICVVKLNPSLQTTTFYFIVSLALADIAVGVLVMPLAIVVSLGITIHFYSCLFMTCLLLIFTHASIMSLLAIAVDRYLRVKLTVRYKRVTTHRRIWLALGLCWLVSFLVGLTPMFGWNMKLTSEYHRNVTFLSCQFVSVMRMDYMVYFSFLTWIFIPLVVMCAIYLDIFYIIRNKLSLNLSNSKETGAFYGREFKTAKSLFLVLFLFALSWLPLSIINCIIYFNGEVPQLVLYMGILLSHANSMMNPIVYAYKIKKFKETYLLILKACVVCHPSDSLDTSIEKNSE
Assay: Ability to displace [125I]-AB-MECA binding from adenosine A3 receptor.

Point of comparison: `COc1cc(OC)c2c(=O)c(OC)c(-c3cc(OC)c(OC)c(OC)c3)oc2c1` [3,5,7-Trimethoxy-2-(3,4,5-trimethoxy-phenyl)-chromen-4-one], Ki 6.61 µM. Against it:
- COc1ccc2c(c1)C(=O)C(O)C(C#Cc1ccccc1)O2 (stereo unspecified) — within 1.5-fold, 8.13 µM
- COC1(OC)Cc2oc(-c3ccc(O)cc3O)c(CC=C(C)C)c(=O)c2C(O)=C1/C=C/C(C)C — within 1.5-fold, 4.57 µM
- CCOc1c(-c2c(C)cc(C)cc2C)oc2ccc(Cl)cc2c1=O — 35-fold lower, 0.191 µM
- O=C1C[C@@H](c2ccc(O)cc2)Oc2ccccc21 [2-(4-hydroxyphenyl)-2,3-dihydro-4H-chromen-4-one] — 3.5-fold higher, 22.9 µM
- O=C1CC(c2ccccc2)Oc2ccccc21 (stereo unspecified) [2-phenyl-2,3-dihydro-4H-chromen-4-one] — 2.5-fold higher, 16.2 µM
- COc1cc(OC)c2c(=O)c(OC)c(-c3ccccc3)oc2c1 [3,5,7-Trimethoxy-2-phenyl-chromen-4-one] — 8-fold lower, 0.831 µM
- COc1ccc(-c2cc(=O)c3c(O)cc(C)cc3o2)cc1 [5-Hydroxy-2-(4-methoxy-phenyl)-7-methyl-chromen-4-one] — 7.6-fold higher, 50.1 µM
- COc1cc(O)c2c(c1)O[C@H](c1ccc(O)cc1)CC2=O [5-hydroxy-2-(4-hydroxyphenyl)-7-methoxychroman-4-one] — 1.9-fold lower, 3.39 µM
- Cc1ccc(-c2oc3ccc(Cl)cc3c(=O)c2Cl)c(C(C)C)c1 [NSC-74899] — 12-fold lower, 0.562 µM
- COc1cc2oc(-c3ccc(O)cc3)cc(=O)c2c(O)c1OC [cirsimartin] — 2.1-fold lower, 3.16 µM
- O=c1c(O)c(-c2ccccc2)oc2cc(O)cc(O)c12 [norizalpinin] — 11-fold lower, 0.589 µM

Target: Adenosine receptor A2a (Rattus norvegicus, UniProt P30543)
Sequence (P30543 whole entry): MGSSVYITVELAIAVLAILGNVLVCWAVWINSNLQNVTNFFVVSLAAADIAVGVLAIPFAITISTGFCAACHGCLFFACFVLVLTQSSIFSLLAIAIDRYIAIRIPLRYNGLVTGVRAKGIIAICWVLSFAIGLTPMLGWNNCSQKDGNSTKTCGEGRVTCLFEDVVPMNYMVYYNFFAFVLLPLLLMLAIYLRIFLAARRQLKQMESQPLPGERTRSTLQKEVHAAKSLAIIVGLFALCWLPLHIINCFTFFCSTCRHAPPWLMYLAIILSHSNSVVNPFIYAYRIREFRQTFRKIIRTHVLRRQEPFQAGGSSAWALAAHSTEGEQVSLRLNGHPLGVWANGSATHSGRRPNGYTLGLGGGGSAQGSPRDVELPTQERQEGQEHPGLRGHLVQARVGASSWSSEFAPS
Assay: Ability to displace [3H]-CGS- 21680 binding from adenosine A2A receptor.

Point of comparison: `CCOc1ccc(-c2oc3cc(OCC)cc(OCC)c3c(=O)c2OCC)c(OCC)c1` [2-(2,4-Diethoxy-phenyl)-3,5,7-triethoxy-chromen-4-one], Ki 26.3 µM. Against it:
- CC(=O)Oc1cc(OC(C)=O)c2c(c1)OC(c1ccccc1)C(OC(C)=O)C2=O (stereo unspecified) — 2.1-fold higher, 56.2 µM
- COc1ccc(-c2cc(=O)c3ccc(O)cc3o2)cc1OC [2-(3,4-dimethoxyphenyl)-7-hydroxy-4H-chromen-4-one] — within 1.5-fold, 34.7 µM
- O=c1c(Cl)c(-c2ccccc2)oc2ccccc12 [3-Chloro-2-phenyl-chromen-4-one] — within 1.5-fold, 25.1 µM
- CCOc1c2ccoc2cc2oc(/C=C/C=C/c3ccccc3)cc(=O)c12 [4-Ethoxy-7-((1E,3E)-4-phenyl-buta-1,3-dienyl)-furo[3,2-g]chromen-5-one] — 6.3-fold higher, 166 µM
- COc1c(O)cc2oc(-c3ccc(O)cc3)cc(=O)c2c1O [5,7-dihydroxy-2-(4-hydroxyphenyl)-6-methoxy-4H-chromen-4-one] — 3.5-fold lower, 7.59 µM
- O=c1c(Cl)c(-c2ccccc2)oc2ccc(Cl)cc12 [NSC-74876] — 2.1-fold higher, 55 µM
